Experimental data reported in patent US7247725B2, “Gamma-aminoamide modulators of chemokine receptor activity” (Merck & Co., Inc., priority 2002, dated 2007).

Biological target: CCR-2 (Homo sapiens, UniProt P41597)
Assay: relative activity of separated diastereomers (assay not stated)
Details: single isomers separated by chiral HPLC (ChiralPak OD); fast vs slow isomer

CCR-2, sequence (P41597 whole entry): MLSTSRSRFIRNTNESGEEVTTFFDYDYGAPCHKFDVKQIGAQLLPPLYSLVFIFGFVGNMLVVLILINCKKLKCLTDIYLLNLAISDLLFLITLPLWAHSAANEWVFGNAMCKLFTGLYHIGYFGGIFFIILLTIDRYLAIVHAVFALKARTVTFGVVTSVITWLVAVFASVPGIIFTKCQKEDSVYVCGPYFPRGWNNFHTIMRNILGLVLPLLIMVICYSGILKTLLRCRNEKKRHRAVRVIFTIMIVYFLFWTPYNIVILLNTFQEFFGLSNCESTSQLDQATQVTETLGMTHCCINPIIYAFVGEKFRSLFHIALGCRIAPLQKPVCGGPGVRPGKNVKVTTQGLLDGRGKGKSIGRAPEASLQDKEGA

SMILES	relative activity of the two diastereomers epimeric α to the amide carbonyl
CC(=O)Nc1nc([C@H](CCN2CC[C@@]3(C=Cc4ccccc43)[C@@H](C)C2)C(=O)NCc2cc(C(F)(F)F)cc(C(F)(F)F)c2)cs1 [Example 52h-(S)]	more active
CC(=O)Nc1nc([C@@H](CCN2CC[C@@]3(C=Cc4ccccc43)[C@@H](C)C2)C(=O)NCc2cc(C(F)(F)F)cc(C(F)(F)F)c2)cs1 [Example 52h-(R)]	less active
